We go through 16 compounds from PubChem BioAssay (NCI).

Common to all, as to assay: inhibition of tumour cell growth, NCI panel, 48 h
In test [1] the test system is SN12C renal.
Test [2] deals with U251 CNS.
For test [3], the system named is SNB-19 CNS.
Test [4] deals with SK-OV-3 ovarian.
The test system of test [5] is SNB-75 CNS.
Test [6] concerns CAKI-1 renal.
The subject of test [7] is HS 578T breast.
Test [8] concerns SF-295 CNS.
Test [9] deals with COLO 205 colon.
In test [10] the test system is LOX IMVI melanoma.

Values joined by “and” are separate entries in the source; they are usually repeats but may differ in a detail not shown here. Equal entries are not always repeated.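 Tested at 5 concentrations; 48 h exposure; 96-well plates; endpoints linearly interpolated, else capped at highest concentration. GI50: concentration for 50% inhibition of growth. TGI: total growth inhibition.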

With `C=C(C)C(=O)NC(N)=NC#N`, the GI50 in test [1] is 72.1 µM; in [2] it was 131 µM; in test [5], 154 µM; in test [8], 179 µM; in test [9], 80.5 µM; in test [10], 28.6 µM. Besides, the TGI in [1] was 199 µM; in test [2] it was 260 µM; in [3] it was 330 µM; in [4], 308 µM; in [5], 289 µM; in test [6], 44.7 µM and 82.9 µM. The TGI is 797 µM in [7], 330 µM in test [8], 206 µM in test [9] and 96 µM in test [10].

In the case of `CCCCCCCC1c2cc3[nH]c(cc4nc(cc5[nH]c(cc(n2)[C@@]1(C)CC(=O)N(C)C)c(C)c5CCC(=O)O)C(CCC(=O)O)=C4C)cc3C` (stereo partly drawn), the TGI in test [1] was 76.1 µM; in test [2], 32.9 µM; in test [3], 36.9 µM; in [4], greater than 100 µM; in [5] it was 40 µM; in test [6] it was greater than 100 µM. In addition, the TGI came out at 40.6 µM in test [7], 37.5 µM in test [8], 32.2 µM in test [9] and 33.3 µM in test [10].

With `O=C1C(=O)c2cc([N+](=O)[O-])ccc2-c2ccccc21`, the GI50 in test [1] is 1.66 µM; in test [2], 1.35 µM; in test [3], 1.6 µM; in [4] it was 1.76 µM; in test [5] it was 1.47 µM; in test [6] it was 1.67 µM. For the same compound, the GI50 was 1.68 µM in test [7], 1.86 µM in test [8], 1.94 µM in [9] and 1.22 µM in [10]. Moreover, the TGI in test [1] stood at 3.05 µM; in test [2], 2.7 µM; in [3], 3 µM; in test [4] it was 3.14 µM; in [5], 2.8 µM; in [6], 3.21 µM. The TGI was found to be 4.49 µM in test [7], 3.48 µM in [8], 3.49 µM in test [9] and 2.48 µM in test [10].

Regarding `Cc1cc(Cl)ccc1Nc1sc(C(=O)c2cc3cc(Cl)ccc3o2)c(N)c1C#N`, the TGI in [1] was greater than 100 µM; in [2], 16.2 µM; in test [3], 25.1 µM; in [4], 57 µM; in test [5] it was 20.8 µM; in test [6], greater than 100 µM. Also, the TGI in test [7], in [8], in test [9] and in [10] was greater than 100 µM each time.

For the compound `Cc1cc(NC(=O)c2ccc(NS(=O)(=O)CCO)cc2N2CCC3(CC2)CC3)nc(N2CCC(F)(F)CC2)n1`, the GI50 is 11.7 µM in test [1]; 1.5 µM in test [2]; 2.03 µM in [3]; 11.1 µM in test [4]; 1.15 µM in test [5]; 10.9 µM in [6]. The GI50 in test [7] was 0.746 µM; in test [8], 12.3 µM; in test [9] it was 11 µM; in test [10] it was 7.05 µM. In addition, the TGI amounted to 24.4 µM in test [1]; 22.7 µM in test [2]; 21.6 µM in [3]; 26 µM in test [4]; 15.6 µM in test [5]; 23.2 µM in test [6]. For the same compound, the TGI in test [7] was 21.9 µM; in [8], 27.3 µM; in [9] it was 28.4 µM; in test [10], 27.3 µM.

In the case of `Nc1ncc(-c2cnn(C3CCNCC3)c2)cc1-c1nc2ccccc2o1`, the GI50 in [1] is 0.478 µM; in test [2] it was 1.48 µM; in test [3] it was 3.25 µM; in [4] it was 1.11 µM; in test [5] it was 1.31 µM; in test [6], 0.532 µM. Moreover, the GI50 in [7] was 1.75 µM; in test [8], 1.54 µM; in [9], 1.55 µM; in [10], 1.2 µM. The TGI worked out at 4.41 µM in test [1]; 3.26 µM in test [2]; 10.6 µM in test [3]; 5.78 µM in test [4]; 2.67 µM in [5]; 2.85 µM in test [6]. In addition, the TGI in test [7] was 4.28 µM; in [8] it was 3.43 µM; in [9] it was 3.05 µM; in test [10] it was 2.59 µM.

Take `CS(=O)(=O)CCNCc1ccc(-c2ccc3ncnc(Nc4ccc(OCc5ccccc5)c(C(F)(F)F)c4)c3c2)o1`: the GI50 is 5.22 µM in [1]; 4.49 µM in test [2]; 4.79 µM in test [3]; 7.19 µM in test [4]; 6.21 µM in [5]; 7.09 µM in [6]. Further, the GI50 in test [7] is 4.16 µM; in [8] it was 5.1 µM; in test [9] it was 4.97 µM; in test [10], 4.27 µM. Further, the TGI was 12.3 µM in [1]; 8.92 µM in test [2]; 9.37 µM in test [3]; greater than 22.1 µM in test [4]; 24.7 µM in test [5]; greater than 25 µM in test [6]. The TGI in [7] turned out to be 12.2 µM; in [8], 10.6 µM; in test [9], 9.11 µM; in test [10], 8.33 µM.

Turning to `O=c1oc2ccc(Cl)cc2c(=O)n1-c1ccc(Cl)cc1F`, the GI50 is 0.431 µM in test [1]; 0.566 µM in test [2]; 0.391 µM in [3]; 0.501 µM in test [4]; 0.219 µM in test [5]; 0.271 µM in test [6]. Also, the GI50 was 0.285 µM in test [7], 0.856 µM in test [8], 6.74 µM in test [9] and 0.424 µM in test [10]. Further, the TGI is 3.78 µM in test [1]; greater than 31.6 µM in test [2]; greater than 100 µM in [3]; 1.54 µM in test [5]; 1.67 µM in test [6]; 1.97 µM in test [7]. Also, the TGI came out at 2.43 µM in test [8], 22.4 µM in test [9] and 2.27 µM in test [10].

For the compound `CN(C)CC/C=C1\c2ccccc2Sc2ccc(Cl)cc21`, the GI50 in test [1] is 2.84 µM; in [2] it was 1.92 µM; in test [3], 2.62 µM; in test [4], 1.99 µM; in test [5], 2.46 µM; in test [6] it was 2.56 µM. The GI50 is 2.99 µM in test [7], 1.78 µM in [8], 1.54 µM in test [9] and 1.57 µM in test [10]. In addition, the TGI in test [1] was 13.7 µM and 29.9 µM; in test [2], 4.66 µM and 26.9 µM; in [3] it was 10.6 µM and 29.9 µM; in [4], 5 µM and 30.7 µM; in [5], 7.61 µM and 25.2 µM; in [6], 11.4 µM and 21.4 µM. Moreover, the TGI in [7] was 15.1 µM and 37 µM; in test [8] it was 4.09 µM and 29.7 µM.

For `N=c1nc(N)c2cc3c(N)nc(=N)c3cc12`, the TGI in [1] was 23.5 µM; in test [2], 43.5 µM; in [3], greater than 100 µM; in [4], 72.5 µM; in test [5], 42.6 µM; in test [6], 41.6 µM. For the same compound, the TGI in test [7] was greater than 100 µM; in test [8], 51 µM; in test [9], greater than 100 µM; in [10] it was greater than 52.2 µM.

As to `C/C(=C\c1ccn(-c2ccc(N)c(C(F)(F)F)c2)n1)[C@@H]1C[C@@H]2O[C@]2(C)CCC[C@H](C)[C@H](O)[C@@H](C)C(=O)C(C)(C)[C@@H](O)CC(=O)O1`, the GI50 in test [1] is 0.0237 µM; in test [2], less than 0.012 µM; in [3], 0.0287 µM; in test [4], 0.103 µM; in test [5] it was 0.00413 µM; in test [6], 0.0429 µM. Also, the GI50 in [7] was 0.0103 µM; in test [8], 0.0155 µM; in test [9], 0.00855 µM; in test [10] it was 0.0122 µM. In addition, the TGI is greater than 32.5 µM in [1]; 8.55 µM in test [2]; greater than 32.5 µM in test [3]; greater than 27.9 µM in [4]; 0.0876 µM in [5]; greater than 32.5 µM in [6]. Besides, the TGI in [7] was 11 µM; in [8], 7.23 µM; in [9], 0.111 µM; in test [10], greater than 20.8 µM.

For the compound `COc1ccc(OC)c(/C=C/c2nnc(Nc3ccc(Cl)cc3)o2)c1`, the GI50 in test [1] is 4.21 µM; in test [2], 3.81 µM; in [3], 13.8 µM; in [4] it was 2.79 µM; in test [5], 2.26 µM; in test [6] it was 6.02 µM. The GI50 in test [7] is 2.71 µM; in test [8], 6.15 µM; in [9], 16.6 µM; in test [10], 7.91 µM. Moreover, the TGI was greater than 100 µM in test [1]; 14.3 µM in test [2]; greater than 100 µM in test [3]; 7.85 µM in test [4]; 7.94 µM in test [5]; greater than 100 µM in [6]. The TGI in test [7] is 8.01 µM; in test [8], 64.5 µM; in test [9] it was greater than 100 µM; in test [10], greater than 100 µM.

Take `O=C(O)C1C2C=CC(O2)C1C(=O)Nc1ccccc1` (stereo not drawn): the TGI in test [1], in test [2], in [3], in test [4], in test [5] and in test [6] was greater than 100 µM throughout. Besides, the TGI in [7], in test [8], in test [9] and in [10] was greater than 100 µM in each case.

With `CNC(=O)c1ccc(Nc2ncc(C(F)(F)F)c(NCc3nccnc3N(C)S(C)(=O)=O)n2)cc1`, the GI50 in test [1] was 3.46 µM and 3.4 µM and 3.41 µM; in test [2], 3.29 µM and 3.18 µM and 2.88 µM; in [3], 3.21 µM and 3.17 µM and 3.31 µM; in test [4], 3.16 µM and 2.27 µM and 2.41 µM; in test [5], 1.52 µM and 1.41 µM; in test [6], 1.8 µM and 1.41 µM and 1.88 µM. The GI50 in test [7] was 0.283 µM and 2.44 µM and 1.5 µM; in test [8] it was 3.04 µM and 2.6 µM and 2.61 µM; in [9] it was 1.32 µM and 1.37 µM and 1.39 µM; in test [10], 2.1 µM and 2.06 µM and 2.02 µM. Besides, the TGI in test [1] was > 10 µM and 11.8 µM and 14.7 µM; in test [2], > 10 µM and 12 µM and 13.6 µM; in test [3], > 10 µM and 13.3 µM and 14.7 µM; in test [4] it was > 10 µM and 9.35 µM and 11.4 µM; in [5], 4.9 µM; in test [6] it was > 10 µM and 8.35 µM and 12.1 µM. For the same compound, the TGI was 7.19 µM and 9.3 µM and 8.29 µM in [7]; > 10 µM and 10.9 µM and 12.9 µM in [8]; 2.91 µM and 2.78 µM and 3.17 µM in [9]; > 10 µM and 8.03 µM and 8.91 µM in [10].

Consider `CCOC(=O)[C@H](CSSc1ncnc2cc[nH]c12)NC(=O)[C@@H](C)c1ccc2cc(OC)ccc2c1`, for which the GI50 in test [1] is 3.98 µM; in [2], 4.77 µM; in test [3] it was 44.4 µM; in test [4], 2.77 µM; in [5], 0.388 µM; in test [6] it was 0.378 µM. For the same compound, the GI50 was 7.92 µM in [7], 0.438 µM in test [8], 1.85 µM in test [9] and 0.081 µM in test [10]. Besides, the TGI in [1], in test [2], in test [3], in [4], in test [5] and in [6] was greater than 100 µM in each case. Besides, the TGI in test [7] was greater than 100 µM; in [8] it was greater than 100 µM; in test [9], greater than 100 µM; in test [10], 18.1 µM.

Regarding `COc1ccc(-c2coc3ncnc(N)c23)cc1`, the GI50 in [1], in test [2], in test [3], in test [4], in test [5] and in test [6] was greater than 25 µM in each case. Besides, the GI50 in [7], in test [8], in test [9] and in [10] was greater than 25 µM in each case. Also, the TGI in [1], in test [2], in test [3], in test [4], in [5] and in test [6] was greater than 25 µM in each case. The TGI in test [7], in test [8], in [9] and in [10] was greater than 25 µM throughout.
